Laboratory results from PubChem BioAssay (NCI).
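Assay format: 96-well plates, 48-hour exposure. Abbreviation: GI50, concentration required for 50% inhibition of growth. TGI: concentration producing complete growth inhibition.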

Experiments:
Test in all cases: NCI tumour cell line growth inhibition, 48 h
NCI-H226 lung = tested on: NCI-H226 lung
NCI-H23 lung = tested on: NCI-H23 lung
NCI-H460 lung = tested on: NCI-H460 lung
NCI-H522 lung = tested on: NCI-H522 lung
NCI/ADR-RES ovarian = tested on: NCI/ADR-RES ovarian
OVCAR-3 ovarian = tested on: OVCAR-3 ovarian
OVCAR-4 ovarian = tested on: OVCAR-4 ovarian
OVCAR-5 ovarian = tested on: OVCAR-5 ovarian
OVCAR-8 ovarian = tested on: OVCAR-8 ovarian
PC-3 prostate = tested on: PC-3 prostate
RPMI-8226 leukemia = tested on: RPMI-8226 leukemia
RXF 393 renal = tested on: RXF 393 renal
SF-268 CNS = tested on: SF-268 CNS
SF-295 CNS = tested on: SF-295 CNS
SF-539 CNS = tested on: SF-539 CNS
SK-MEL-2 melanoma = tested on: SK-MEL-2 melanoma
SK-MEL-28 melanoma = tested on: SK-MEL-28 melanoma
SK-MEL-5 melanoma = tested on: SK-MEL-5 melanoma
SK-OV-3 ovarian = tested on: SK-OV-3 ovarian
SN12C renal = tested on: SN12C renal
SNB-19 CNS = tested on: SNB-19 CNS
SNB-75 CNS = tested on: SNB-75 CNS
SR leukemia = tested on: SR leukemia
SW-620 colon = tested on: SW-620 colon
T-47D breast = tested on: T-47D breast
TK-10 renal = tested on: TK-10 renal
U251 CNS = tested on: U251 CNS
UACC-257 melanoma = tested on: UACC-257 melanoma
UACC-62 melanoma = tested on: UACC-62 melanoma
UO-31 renal = tested on: UO-31 renal

**Q.** How did the TGI (NCI-H226 lung) turn out when `Cc1ccc(C2CC(c3ccc(NC(=O)Nc4ccccc4)cc3)=NN2c2ccc(S(C)(=O)=O)cc2)cc1` (centres undefined) was run?
**A.** 7.04 µM

**Q.** And the GI50 (NCI-H23 lung)?
**A.** 2.48 µM

**Q.** What about the TGI (NCI-H23 lung) of the same compound?
**A.** 8.48 µM

**Q.** What about the GI50 (NCI-H460 lung) of the same compound?
**A.** 2.2 µM

**Q.** And the TGI (NCI-H460 lung)?
**A.** 5.6 µM

**Q.** And the GI50 (NCI-H522 lung)?
**A.** 2.24 µM

**Q.** And the TGI (NCI-H522 lung)?
**A.** 10.6 µM

**Q.** What about the GI50 (NCI/ADR-RES ovarian) of the same compound?
**A.** 2.5 µM

**Q.** And the TGI (NCI/ADR-RES ovarian)?
**A.** 7.74 µM

**Q.** What about the GI50 (OVCAR-3 ovarian) of the same compound?
**A.** 1.93 µM

**Q.** And the TGI (OVCAR-3 ovarian)?
**A.** 4.47 µM

**Q.** And the GI50 (OVCAR-4 ovarian)?
**A.** 2.84 µM

**Q.** And the TGI (OVCAR-4 ovarian)?
**A.** 11.3 µM

**Q.** And the GI50 (OVCAR-5 ovarian)?
**A.** 2.27 µM

**Q.** And the TGI (OVCAR-5 ovarian)?
**A.** 6.78 µM

**Q.** And the GI50 (OVCAR-8 ovarian)?
**A.** 4.83 µM

**Q.** What about the TGI (OVCAR-8 ovarian) of the same compound?
**A.** 21.7 µM

**Q.** And the GI50 (PC-3 prostate)?
**A.** 2.82 µM

**Q.** And the TGI (PC-3 prostate)?
**A.** 11.8 µM

**Q.** And the GI50 (RPMI-8226 leukemia)?
**A.** 2.48 µM

**Q.** What about the TGI (RPMI-8226 leukemia) of the same compound?
**A.** 7.98 µM

**Q.** And the GI50 (RXF 393 renal)?
**A.** 1.84 µM

**Q.** And the TGI (RXF 393 renal)?
**A.** 5.08 µM

**Q.** And the GI50 (SF-268 CNS)?
**A.** 3.82 µM

**Q.** What about the TGI (SF-268 CNS) of the same compound?
**A.** 15.5 µM

**Q.** And the GI50 (SF-295 CNS)?
**A.** 2.58 µM

**Q.** And the TGI (SF-295 CNS)?
**A.** 8.35 µM

**Q.** What about the GI50 (SF-539 CNS) of the same compound?
**A.** 2.28 µM

**Q.** And the TGI (SF-539 CNS)?
**A.** 6.05 µM

**Q.** And the GI50 (SK-MEL-2 melanoma)?
**A.** 7.39 µM

**Q.** What about the TGI (SK-MEL-2 melanoma) of the same compound?
**A.** 22.3 µM

**Q.** What about the GI50 (SK-MEL-28 melanoma) of the same compound?
**A.** 3.39 µM

**Q.** And the TGI (SK-MEL-28 melanoma)?
**A.** 11.9 µM

**Q.** And the GI50 (SK-MEL-5 melanoma)?
**A.** 2.34 µM

**Q.** And the TGI (SK-MEL-5 melanoma)?
**A.** 6.28 µM

**Q.** And the GI50 (SK-OV-3 ovarian)?
**A.** 7.96 µM

**Q.** What about the TGI (SK-OV-3 ovarian) of the same compound?
**A.** 21.2 µM

**Q.** What about the GI50 (SN12C renal) of the same compound?
**A.** 1.69 µM

**Q.** And the TGI (SN12C renal)?
**A.** 3.16 µM

**Q.** What about the GI50 (SNB-19 CNS) of the same compound?
**A.** 5.53 µM

**Q.** What about the TGI (SNB-19 CNS) of the same compound?
**A.** 18.4 µM

**Q.** What about the GI50 (SNB-75 CNS) of the same compound?
**A.** 4.44 µM

**Q.** What about the TGI (SNB-75 CNS) of the same compound?
**A.** 19.3 µM

**Q.** And the GI50 (SR leukemia)?
**A.** 2.59 µM

**Q.** What about the TGI (SR leukemia) of the same compound?
**A.** 10.7 µM

**Q.** What about the GI50 (SW-620 colon) of the same compound?
**A.** 2.6 µM

**Q.** What about the TGI (SW-620 colon) of the same compound?
**A.** 12.1 µM

**Q.** What about the GI50 (T-47D breast) of the same compound?
**A.** 3.02 µM

**Q.** What about the TGI (T-47D breast) of the same compound?
**A.** 11.1 µM

**Q.** What about the GI50 (TK-10 renal) of the same compound?
**A.** 4.52 µM

**Q.** What about the TGI (TK-10 renal) of the same compound?
**A.** 17.1 µM

**Q.** What about the GI50 (U251 CNS) of the same compound?
**A.** 4.36 µM

**Q.** What about the TGI (U251 CNS) of the same compound?
**A.** 17.1 µM

**Q.** What about the GI50 (UACC-257 melanoma) of the same compound?
**A.** 6.15 µM

**Q.** What about the TGI (UACC-257 melanoma) of the same compound?
**A.** 22.6 µM

**Q.** What about the GI50 (UACC-62 melanoma) of the same compound?
**A.** 3.19 µM

**Q.** And the TGI (UACC-62 melanoma)?
**A.** 13.4 µM

**Q.** And the GI50 (UO-31 renal)?
**A.** 2.58 µM

**Q.** And the TGI (UO-31 renal)?
**A.** 11.2 µM
